Tests used:
[1] = system: larvae in a laboratory growing medium; assay: Application to larvae in laboratory growing medium; format: in vivo; details: control group remained in growing medium
Excerpt: Trials involved applying an exemplary compound to larvae in a laboratory growing medium.
An exemplary compound, methyl anthranilate (e.g., BIRDSHIELD™) was applied to insects that were first allowed to adapt to a laboratory environment. A control group of insects were not exposed to the exemplary compound.

insects = assay: Glue coated cardboard traps in a field; format: in vivo
Protocol: Trials were performed using an exemplary compound as part of a trapping device (e.g., a glue coated cardboard surface). Five traps were each treated with a 1 ml solution of 0.0156%, 0.03125%, 0.0625%, 0.125% and 0.25% methyl anthranilate, respectively. The treated traps were then placed at relatively random locations in a field. An untreated trap was placed adjacent to each treated trap and the number of insects adhered to each trap recorded as a function of time.

[2] = system: house flies (D. melanogater); assay: Treated aluminum siding section on building; format: in vivo; details: 0.025%
Excerpt: (§1) An exemplary compound, methyl anthranilate (e.g. Bird Shield™) was applied at 0.025% concentration to a three foot by one foot (three square feet) section of aluminum siding (treated section) and compared with a equal sized section of aluminum siding (untreated section) on the side of a building. Approximately 23 to 25 house flies (D. melanogater) had landed and were resting on each section. […] All of the flies on the untreated section remained. […] Twenty-three flies remained on the adjacent untreated section.

house flies = assay: Treated aluminum siding section on building; format: in vivo, D. melanogater; details: 0.025%, thirty minutes after application
Excerpt: as §1

[3] = system: corn ear worm (Heliothus zea); assay: Exemplary compound applied after insecticide, sweet corn; format: in vivo
Excerpt: An exemplary compound, methyl anthranilate, was applied to sweet corn after the crop had been treated with an insecticide (e.g., the pyrethrin insecticide WARRIOR™) to control corn ear worm (Heliothus zea). Prior to application of the exemplary compound, few if any larvae, which typically reside in the developing ear, were observed on the ground around the corn stalks.
After applying the exemplary compound, methyl anthranilate, at a concentration of approximately 4.5 oz.

adult weevils = assay: Exemplary compound on sunflowers previously sprayed with esfenvalerate, weevils emerging; format: in vivo
Excerpt: An exemplary compound, methyl anthranilate, was combined with long chain fatty acids. An exemplary method applied the mixture to fifteen maturing sunflowers in the interior of two fields that were previously sprayed with an insecticide, esfenvalerate (e.g., the insecticide product ASANA™). The mixture that included the exemplary compound was applied by spraying the mixture across the head of each flower (e.g., where seeds exist). The number of striped sunflower head moth larvae and weevils, emerging from the seeds, was recorded.

[4] = system: striped sunflower head moth larvae; assay: Exemplary compound applied after exemplary composition, sunflowers; details: in vivo
Excerpt: An exemplary compound, methyl anthranilate, was combined with long chain fatty acids. The exemplary compound, as mixed with the fatty acids, was applied to three fields of maturing sunflowers. Each of the fields had previously been treated with an exemplary composition that included an exemplary compound, methyl anthranilate (approx. 4.5 oz per acre mixed with long chain fatty acids) and an insecticide, in this example, esfenvalerate (approx. 8 oz per acre using the insecticide product ASANA™). Ten flowers were randomly selected from the interior of each field and one-half of the seed heads were sprayed with DEET and one-half sprayed with the exemplary compound at a concentration of approximately 0.00312% methyl anthranilate, which was in a mixture that included long chain fatty acids. Spraying sprayed across the head of each flower. The number of striped sunflower head moth larvae, emerging from the seeds, was recorded.

[5] = system: mosquito (Aedes aegyptis); assay: Mosquito repellency on human subject; format: in vivo
Excerpt: In these trials, DEET was provided in the commercially available product DEEP WOODS OFF™ repellent (S.C. Johnson & Son, Inc., Racine, Wis.), which has approximately 28.5% active ingredient; 1.5% other isomers and 70% inert ingredients.
In a first trial, a human subject was exposed to a mosquito (Aedes aegyptis) rich environment without application of the exemplary compound or DEET. Within less than one minute the subject was covered with the insects. In a second trial, the subject sprayed one unclothed arm with the exemplary compound at a rate of 0.00312% and the other unclothed arm with DEET at a concentration of 0.24%. The subject's head remained untreated. Upon returning to the test area, the subject's head was covered with the insects within one minute. […] In a third trial the subject, after removing the DEET from his/her body, reapplied the exemplary compound to unclothed arms, head and neck before returning to the test area. The subject returned to and remained in the test area for more than one hour without any of the insects landing on his/her arms, hands and head while numerous insects were observed on the clothed portions of his/her anatomy.

ants = assay: Treatment of ground to form a boundary; details: in vivo
Protocol: An exemplary method includes applying an exemplary compound or composition to the ground to thereby discourage insect traffic or deposition of insect semiochemicals. For example, where an exemplary compound is applied to the ground, the ground is not readily further marked by an insect semiochemical. A trial was performed where an exemplary compound (methyl anthranilate) was applied to the ground to form a boundary.

birds = details: in vivo; cited from earlier work
Camponotus spp. = details: in vivo; cited from earlier work
Thrips hawaiiensis = details: in vivo; cited from earlier work
Ceranisus menes = details: in vivo; cited from earlier work
[6] = system: Thaumatomyia glabra (Meigen) flies; details: in vivo; cited from earlier work

Which “behavior of exposed insects” value [1] does the source give for `COC(=O)c1ccccc1N` [methyl anthranilate] here?
Its value is “emerged quickly from the laboratory growing medium”.

And the “number of insects adhered to trap” value (insects; 0.0156 percent, 1 min)?
The value was 3.

What about the “number of insects adhered to trap” value (insects; 0.0156 percent, 5 min) of the same molecule?
Its value is 22.

And the “number of insects adhered to trap” value (insects; 0.0156 percent, 10 min)?
The value was 75.

What about the “number of insects adhered to trap” value (insects; 0.0156 percent, 20 min) of the same molecule?
Its value is greater than 75.

What about the “number of insects adhered to trap” value (insects; 0.0313 percent, 1 min) of the same molecule?
Its value is 5.

And the “number of insects adhered to trap” value (insects; 0.0313 percent, 5 min)?
The value was 15.

And the “number of insects adhered to trap” value (insects; 0.0313 percent, 10 min)?
Its value is 68.

What about the “number of insects adhered to trap” value (insects; 0.0313 percent, 20 min) of the same molecule?
The value was greater than 68.

And the “number of insects adhered to trap” value (insects; 0.0625 percent, 1 min)?
Its value is 7.

What about the “number of insects adhered to trap” value (insects; 0.0625 percent, 5 min) of the same molecule?
Its value is 35.

What about the “number of insects adhered to trap” value (insects; 0.0625 percent, 10 min) of the same molecule?
The value was 128.

What about the “number of insects adhered to trap” value (insects; 0.0625 percent, 20 min) of the same molecule?
Its value is greater than 128.

And the “number of insects adhered to trap” value (insects; 0.1250 percent, 1 min)?
Its value is 15.

And the “number of insects adhered to trap” value (insects; 0.1250 percent, 5 min)?
The value was 62.

What about the “number of insects adhered to trap” value (insects; 0.1250 percent, 10 min) of the same molecule?
Its value is 256.

What about the “number of insects adhered to trap” value (insects; 0.1250 percent, 20 min) of the same molecule?
Its value is greater than 256.

What about the “number of insects adhered to trap” value (insects; 0.2500 percent, 1 min) of the same molecule?
Its value is 43.

And the “number of insects adhered to trap” value (insects; 0.2500 percent, 5 min)?
The value was 84.

And the “number of insects adhered to trap” value (insects; 0.2500 percent, 10 min)?
Its value is 346.

And the “number of insects adhered to trap” value (insects; 0.2500 percent, 20 min)?
The value was greater than 346.

What about the “flies resting on treated section” value ([2]; immediately after application) of the same molecule?
Its value is “all of the flies departed”.

And the “flies on treated section” value ([2]; one hour after application)?
Its value is “no flies were observed trying to land on the treated section”.

And the “time flies remained on treated section” value ([2]; thirty minutes after application)?
The value was 6 to 8 s.

And the “flies on treated section” value ([2]; twenty-four hours after application)?
Its value is “no flies were observed on the treated section”.

And the “flies attempting to land on treated section within a five minute period” value (house flies)?
Its value is “approximately 30 flies”.

And the “insects on the ground around the corn stalks” value ([3]; approximately 4.5 oz. (127 g) per acre by aircraft, after WARRIOR treatment)?
The value was “a significant number of insects were observed on the ground”.

What about the “worms in the corn ears at harvest” value ([3]; insecticide (WARRIOR) and methyl anthranilate) of the same molecule?
Its value is “did not contain any significant number of worms”.

And the “Number of Adult Weevils, Mean” value (adult weevils; Field No 2)?
The value was 1.14.

And the “Number of Adult Weevils, Total” value (adult weevils; Field No 2)?
The value was 8.

And the “Number of Adult Weevils, Mean” value (adult weevils; Field No. 1)?
Its value is 0.43.

What about the “Number of Adult Weevils, Total” value (adult weevils; Field No. 1) of the same molecule?
Its value is 3.

What about the “effectiveness when applied after an exemplary composition” value [4] of the same molecule?
The value was “high level of effectiveness”.

And the “effectiveness as mosquito repellent compared with DEET” value ([5]; at lower concentrations)?
Its value is “as effective as DEET”.

What about the “mosquitoes on treated unclothed arm” value ([5]; second trial, methyl anthranilate 0.00312%, DEET 0.24%, untreated head covered within one minute) of the same molecule?
The value was “No mosquitoes were found”.

What about the “time in test area without insects landing on treated arms, hands and head” value ([5]; third trial) of the same molecule?
Its value is “more than one”.

And the “crossing of treated ground boundary” value (ants)?
The value was “ants did not cross this boundary”.

And the repellency to birds (birds)?
Its repellency to birds is “exhibit repellency to birds”.

And the “effect on Camponotus spp.” value (Camponotus spp.)?
Its value is “trigger flight of sexuals from nest”.

And the “attraction of Thrips hawaiiensis” value (Thrips hawaiiensis)?
Its value is “are attracted”.

What about the “attraction of Ceranisus menes” value (Ceranisus menes) of the same molecule?
The value was “are attracted”.

What about the “attraction of Thaumatomyia glabra flies” value [6] of the same molecule?
The value was “attractive”.

Reference: US8092790B2, “Methods of making formulations to affect insect behavior and/or bird behavior” (Bug Buster, Ltd., priority 2003, dated 2012)
